For one test, the target named is EZH2 (Homo sapiens, UniProt Q15910). As to the kind of experiment: EZH2 assay: rPRC2 with biotinylated oligonucleosome substrates and 3H SAM, FlashPlate scintillation counting, IC50. Format: biochemical. The following applies: rPRC2, biotinylated oligonucleosome substrates, 3H SAM; read-out: EZH2 IC50. In a few lines:
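IC50 from 4-parameter fit, baselines fixed at 0 and 100%. Compounds (top 80 uM, 2-fold series to 0.16 uM) pre-incubated 20 min with 2 nM EZH2-PRC2; 60-min methylation in pH 8.5 Tris with 0.2 uM 3H SAM, 0.2 uM oligonucleosomes, 3.6 uM H3K27me3 peptide.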

Another test has as its target Y641N EZH2 (Homo sapiens, UniProt Q15910, Y641N). As to the kind of experiment: Y641N EZH2 assay: performed as the EZH2 assay, using reconstituted H3K27Me2 oligonucleosomes as substrate. Format: biochemical. The method, then: Assays were carried out by mixing rPRC2 together with biotinylated oligonucleosome substrates in the presence of the radio-labeled enzyme co-factor, S-adenosyl-L-methionine (^3H SAM) (Perkin Elmer) and monitoring the enzymatically mediated transfer of tritiated methyl groups from ^3H SAM to histone lysine residues. The amount of resulting tritated methylhistone product was measured by first capturing the biotinylated oligonuclesomes in streptavidin (SAV) coated FlashPlates (Perkin Elmer), followed by a wash step to remove un-reacted ^3H SAM, and then counting on a TopCount NXT 384 well plate scintillation counter (Perkin Elmer). The final assay conditions for EZH2 were as follows: 50 mM Tris Buffer pH 8.5, 1 mM DTT, 69 uM Brij-35 detergent, 5.0 mM MgCl2, 0.1 mg/mL BSA, 0.2 uM ^3H SAM, 0.2 uM biotinylated oligonucleosomes, 3.6 uM H3K27me3 peptide and 2 nM EZH2.
Compound IC50 measurements were obtained as follows: Compounds were first dissolved in 100% DMSO as 10 mM stock solutions. […] A 12.5 uL volume of the HMT enzyme, H3K27me3 peptide and oligonucleosome substrate in assay buffer was added to each well of the assay plate using a Multidrop Combi (ThermoFisher). Compounds were pre-incubated with the enzyme for 20 min, followed by initiation of the methyltransferase reaction by addition of 12.5 uL of 3H SAM in assay buffer (final volume=25 uL). The final concentrations of compounds ranged from a top default concentration of 80 uM down to 0.16 uM in ten 2-fold dilution steps. Reactions were carried out for 60 minutes and quenched with 20 uL per well of 1.96 mM SAH, 50 mM Tris PH 8.5, 200 mM EDTA. Stopped reactions were transferred to SAV coated Flashplates (Perkin Elmer), incubated for 120 min, washed with a plate washer, and then read on the TopCount NXT (1.0 min/well) to measure the amount of methylhistone product formed during the reaction. The amount of methylhistone product was compared with the amount of product formed in the 0% and 100% inhibition control wells allowing the calculation of % Inhibition in the presence of the individual compounds at various concentrations. IC50's were computed using a 4 parameter fit non-linear curve fitting software package (XLFIT, part of the database package, ActivityBase (IDBS)) where the four parameters were IC50, Hill slope, pre-transitional baseline (0% INH), and post-transitional baseline (100% INH); with the latter two parameters being fixed to zero and 100%, respectively, by default.

The structures appear in SMILES notation. Bounds are passed on as bounds.

The values that follow come from patent US20130310379A1, “MODULATORS OF METHYL MODIFYING ENZYMES, COMPOSITIONS AND USES THEREOF” (CONSTELLATION PHARMACEUTICALS, priority 2010, published 2013).

Sequence of EZH2 (Q15910 whole entry): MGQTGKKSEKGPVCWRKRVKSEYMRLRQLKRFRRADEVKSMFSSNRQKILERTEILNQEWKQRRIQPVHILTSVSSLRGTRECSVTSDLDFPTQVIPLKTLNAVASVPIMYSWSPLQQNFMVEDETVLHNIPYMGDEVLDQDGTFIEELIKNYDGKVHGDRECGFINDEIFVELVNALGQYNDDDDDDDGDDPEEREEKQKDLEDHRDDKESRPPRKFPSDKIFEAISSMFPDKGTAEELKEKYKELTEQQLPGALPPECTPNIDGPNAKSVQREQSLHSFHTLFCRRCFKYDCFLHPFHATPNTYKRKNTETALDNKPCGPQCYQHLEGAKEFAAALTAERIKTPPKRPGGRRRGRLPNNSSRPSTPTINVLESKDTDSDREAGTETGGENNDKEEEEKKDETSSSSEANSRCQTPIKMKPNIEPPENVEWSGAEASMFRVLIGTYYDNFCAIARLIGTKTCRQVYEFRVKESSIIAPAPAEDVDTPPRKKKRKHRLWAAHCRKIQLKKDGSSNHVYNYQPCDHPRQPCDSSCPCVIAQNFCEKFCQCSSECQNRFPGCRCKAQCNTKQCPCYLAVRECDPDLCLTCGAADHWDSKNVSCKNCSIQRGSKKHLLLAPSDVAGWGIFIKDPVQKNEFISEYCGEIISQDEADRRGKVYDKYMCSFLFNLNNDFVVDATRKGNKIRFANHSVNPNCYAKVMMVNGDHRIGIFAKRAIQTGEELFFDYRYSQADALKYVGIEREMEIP
Sequence of EZH2 (O75530 whole entry partner): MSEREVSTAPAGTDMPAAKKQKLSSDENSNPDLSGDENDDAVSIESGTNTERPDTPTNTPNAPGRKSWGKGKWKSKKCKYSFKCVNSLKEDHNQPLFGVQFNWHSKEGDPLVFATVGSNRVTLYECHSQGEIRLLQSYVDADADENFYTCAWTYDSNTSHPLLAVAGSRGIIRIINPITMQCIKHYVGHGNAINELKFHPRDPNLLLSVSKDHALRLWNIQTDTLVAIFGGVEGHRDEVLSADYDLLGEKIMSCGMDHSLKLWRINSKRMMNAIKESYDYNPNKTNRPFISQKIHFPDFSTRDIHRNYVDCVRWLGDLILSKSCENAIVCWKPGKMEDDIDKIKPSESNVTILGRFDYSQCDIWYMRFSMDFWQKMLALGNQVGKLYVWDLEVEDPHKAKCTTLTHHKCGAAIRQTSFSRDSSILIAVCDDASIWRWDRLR
Sequence of EZH2 (Q15022 whole entry partner): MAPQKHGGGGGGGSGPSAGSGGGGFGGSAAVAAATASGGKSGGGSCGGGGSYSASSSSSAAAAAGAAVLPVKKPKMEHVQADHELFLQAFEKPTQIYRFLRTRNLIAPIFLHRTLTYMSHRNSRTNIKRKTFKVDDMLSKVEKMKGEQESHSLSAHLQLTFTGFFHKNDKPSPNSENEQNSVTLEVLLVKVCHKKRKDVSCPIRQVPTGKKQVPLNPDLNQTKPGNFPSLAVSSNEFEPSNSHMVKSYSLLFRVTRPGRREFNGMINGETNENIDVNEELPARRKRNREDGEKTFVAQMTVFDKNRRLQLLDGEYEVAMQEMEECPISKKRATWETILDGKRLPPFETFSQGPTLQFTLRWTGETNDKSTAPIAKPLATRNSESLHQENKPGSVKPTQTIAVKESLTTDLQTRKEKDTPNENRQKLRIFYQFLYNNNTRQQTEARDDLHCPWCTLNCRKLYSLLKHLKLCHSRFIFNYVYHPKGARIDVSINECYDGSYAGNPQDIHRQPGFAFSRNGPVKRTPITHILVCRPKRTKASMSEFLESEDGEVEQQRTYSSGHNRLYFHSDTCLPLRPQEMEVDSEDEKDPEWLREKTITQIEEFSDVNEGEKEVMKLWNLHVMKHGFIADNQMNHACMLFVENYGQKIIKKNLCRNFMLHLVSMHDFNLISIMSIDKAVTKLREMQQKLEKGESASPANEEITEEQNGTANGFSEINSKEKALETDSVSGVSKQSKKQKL
Sequence of Y641N EZH2 (Q15910 whole entry Y641N): as the sequence (Q15910 whole entry) above, with Y641N counted along it
Sequence of Y641N EZH2 (O75530 whole entry partner): as the sequence (O75530 whole entry partner) above
Sequence of Y641N EZH2 (Q15022 whole entry partner): as the sequence (Q15022 whole entry partner) above

For the compound `CN1CCN(c2cccc(Oc3ccc(C(=O)NC4CC(C)(C)NC(C)(C)C4)cc3Cl)c2)CC1` [Compound I-417], the IC50 (usually the midpoint of a concentration-inhibition curve) on EZH2 was 20 to 80 µM; against Y641N EZH2, over 80 µM. Consider `CC1(C)CC(NC(=O)c2ccc(Oc3cccc(-c4ccnnc4)c3C#N)c(Cl)c2)CC(C)(C)C1=O` [Compound I-564], for which the IC50 is under 5 µM on EZH2 and over 80 µM on Y641N EZH2. Regarding `CC(=O)N1CCC(c2cccc(Oc3ccc(C(=O)NC4CC(C)(C)NC(C)(C)C4)cc3)c2C#N)CC1` [Compound I-536], the IC50 was under 5 µM on EZH2 and 20 to 80 µM against Y641N EZH2. With `Cc1cc(C(=O)NC2CC(C)(C)NC(C)(C)C2)ccc1Oc1cccc(-c2ccccc2)c1C#N` [Compound I-260], the IC50 is under 5 µM on EZH2 and 20 to 80 µM against Y641N EZH2. Consider `CC1(C)CC(NC(=O)c2ccc(Oc3cccc(N4CCCC4=O)c3)c(Cl)c2)CC(C)(C)N1` [Compound I-385], for which the IC50 was 5 to 20 µM at EZH2 and over 80 µM on Y641N EZH2. For `CC1(C)CC(OCc2ccc(Oc3cccc(-c4ccncn4)c3C#N)c(Cl)c2)CC(C)(C)N1` [Compound I-591, 2-(2-chloro-4-(((2,2,6,6-tetramethylpiperidin-4-yl)oxy)methyl)phenoxy)-6-(pyrimidin-4-yl)benzonitrile] the same measures were under 5 µM and 20 to 80 µM. For `CC1(C)CC(NC(=O)c2ccc(Oc3cccc(NCC(N)=O)c3)c(Cl)c2)CC(C)(C)N1` [Compound I-304] the same measures were 5 to 20 µM and over 80 µM.

As to `CC1OC(=O)c2c(Oc3ccc(C(=O)NC4CC(C)(C)NC(C)(C)C4)cc3Cl)cccc21` (centres unmarked) [Compound I-401], the IC50 at EZH2 and against Y641N EZH2 was under 5 µM each time. On to `Cc1cc(-c2cccc(Oc3ccc(C(=O)NC4CC(C)(C)NC(C)(C)C4)cc3Cl)c2C#N)ccn1` [Compound I-584], for which the IC50 on EZH2 and at Y641N EZH2 was under 5 µM in each case.

On to `CN(C(=O)c1ccc(Oc2ccccc2C#N)c(Cl)c1)C1CC(C)(C)NC(C)(C)C1` [Compound I-344], for which the figures for the IC50 on EZH2 and against Y641N EZH2 were 5 to 20 µM and over 80 µM, respectively. For the compound `CCc1cccc(Oc2ccc(C(=O)NC3CC(C)(C)NC(C)(C)C3)cc2Br)c1C#N` [Compound I-369], the IC50 on EZH2 and against Y641N EZH2 was under 5 µM throughout. Take `CC(=O)N1CCN(c2cccc(Oc3ccc(C(=O)NC4CC(C)(C)NC(C)(C)C4)cc3Cl)c2)CC1` [Compound I-499]: the IC50 on EZH2 is 20 to 80 µM; at Y641N EZH2, over 80 µM.

`CC1(C)CC(NC(=O)c2ccc(Oc3cccc(N4CCCC4)c3)c(Cl)c2)CC(C)(C)N1` [Compound I-379]: the IC50 on EZH2 and at Y641N EZH2 was 20 to 80 µM in each case. On to `CC1(C)CC(NC(=O)c2ccc(Oc3ccccc3C#N)c(Br)c2)CC(C)(C)N1` [Compound I-186], for which the IC50 was under 5 µM at EZH2 and 5 to 20 µM against Y641N EZH2. The corresponding values for `CC1(C)CC(NC(=O)c2ccc(Oc3cccc(N4CCOCC4)c3)c(Cl)c2)CC(C)(C)N1` [Compound I-590] are 20 to 80 µM and over 80 µM. For `CC1(C)CC(NC(=O)c2ccc(Oc3cccc(-c4ccnc(N)c4)c3C#N)c(Cl)c2)CC(C)(C)N1` [Compound I-375], the IC50 at EZH2 and against Y641N EZH2 was under 5 µM each time.

Regarding `CC1(C)CC(NC(=O)c2ccc(Oc3cccc(-c4cn[nH]c4)c3C#N)c(Br)c2)CC(C)(C)N1` [Compound I-347], the IC50 at EZH2 and at Y641N EZH2 was under 5 µM each time.

As for `Cc1ccc(-c2cccc(Oc3ccc(C(=O)NC4CC(C)(C)NC(C)(C)C4)cc3Cl)c2C#N)cn1` [Compound I-362], the values for the IC50 on EZH2 and against Y641N EZH2 were under 5 µM and 5 to 20 µM, respectively. With `CC1(C)CC(NC(=O)c2ccc(N3CCC(c4ccccc4)C3)c(Cl)c2)CC(C)(C)N1` (centres unmarked) [Compound I-413], the IC50 at EZH2 was 20 to 80 µM; at Y641N EZH2, over 80 µM. For `CC1(C)CC(NC(=O)N2CCC(Oc3cccc(-c4cn[nH]c4)c3C#N)CC2)CC(C)(C)N1` [Compound I-429] the same measures were 20 to 80 µM and over 80 µM. The corresponding values for `Cc1cc(C(=O)NC2CC(C)(C)NC(C)(C)C2)ccc1Oc1ccccc1C#N` [Compound I-223] are under 5 µM and 5 to 20 µM. For `CNCc1cccc(Oc2ccc(C(=O)NC3CC(C)(C)NC(C)(C)C3)cc2Cl)c1C#N` [Compound I-381], the figures for the IC50 at EZH2 and at Y641N EZH2 were under 5 µM and 20 to 80 µM, respectively.

For `CC1(C)CC(NC(=O)c2ccc(Oc3cccc(Br)c3C#N)c(Cl)c2)CC(C)(C)N1` [Compound I-254], the IC50 on EZH2 and against Y641N EZH2 was under 5 µM each time. `CC1(C)CC(NC(=O)c2ccc(C(=O)Nc3ccccc3)cc2)CC(C)(C)N1` [Compound I-160]: the IC50 on EZH2 is over 80 µM. On to `Cc1ccncc1-c1ccccc1Oc1ccc(C(=O)NC2CC(C)(C)NC(C)(C)C2)cc1Cl` [Compound I-297], for which the IC50 on EZH2 lay in the range of 5 to 20 µM.

In the case of `CC1(C)CC(NC(=O)c2ccc(Oc3ccccc3Cl)cc2)CC(C)(C)N1` [Compound I-28], the IC50 on EZH2 lay in the range of 20 to 80 µM. Turning to `CC1(C)CC(NC(=O)c2ccc(Oc3cccc(O)c3)cc2)CC(C)(C)N1` [Compound I-29], at EZH2, the IC50 was in the range of 20 to 80 µM. With `CC(=O)Nc1ccc(-c2cccc(OCc3ccc(C(=O)NC4CC(C)(C)NC(C)(C)C4)cc3)c2)cn1` [Compound I-593], at EZH2, the IC50 was under 5 µM. Consider `CC1(C)CC(NC(=O)c2ccc(N3C(=O)COc4ccccc43)c(Cl)c2)CC(C)(C)N1` [Compound I-522], for which, at EZH2, the IC50 lay in the range of 20 to 80 µM. As for `COCc1cccc(Oc2ccc(C(=O)NC3CC(C)(C)NC(C)(C)C3)cc2Cl)c1C#N` [Compound I-453], at EZH2, the IC50 is under 5 µM. In the case of `CC1(C)CC(NC(=O)c2ccc(Oc3ccccc3C#N)c(Cl)c2)CC(C)(C)N1` [Compound I-2], on EZH2, the IC50 is under 5 µM.

Regarding `CN(C)C(=O)c1ccccc1Oc1ccc(C(=O)NC2CC(C)(C)NC(C)(C)C2)cc1Cl` [Compound I-246], the IC50 at EZH2 was 20 to 80 µM.

`CC1(C)CC(NC(=O)c2ccc(Oc3ccccc3C#N)c3ccccc23)CC(C)(C)N1` [Compound I-270]: the IC50 on EZH2 was under 5 µM.

For the compound `CC1(C)CC(NC(=O)c2cccc(COc3cccc(Br)c3)c2)CC(C)(C)N1` [Compound I-130], the IC50 on EZH2 was over 80 µM. As for `Cc1cc(C)cc(OCc2ccc(C(=O)NC3CC(C)(C)NC(C)(C)C3)cc2)c1` [Compound I-9], the IC50 at EZH2 is 5 to 20 µM.

On to `CC(Oc1ccccc1)c1ccc(C(=O)NC2CC(C)(C)NC(C)(C)C2)cc1` (centres unmarked) [Compound I-118, 4-(1-phenoxyethyl)-N-(2,2,6,6-tetramethylpiperidin-4-yl)benzamide], for which the IC50 at EZH2 is over 80 µM.

Regarding `CC(=O)N1C(C)(C)CC(NC(=O)c2ccc(Oc3ccccc3C#N)c(Cl)c2)CC1(C)C` [Compound I-290], at EZH2, the IC50 is over 80 µM. In the case of `CC1(C)CC(NC(=O)c2ccc(Oc3cccc(CN4CCCCC4)c3C#N)cc2)CC(C)(C)N1` [Compound I-283], at EZH2, the IC50 lay in the range of 5 to 20 µM. `CC1(C)CC(NC(=O)c2ccc(Oc3ccccc3C(N)=O)c(Cl)c2)CC(C)(C)N1` [Compound I-284]: the IC50 on EZH2 lay in the range of 5 to 20 µM. For `CC1(C)CC(NC(=O)c2ccc(Oc3ccccc3CN)cc2)CC(C)(C)N1` [Compound I-273], at EZH2, the IC50 lay in the range of 20 to 80 µM.

Turning to `CC1(C)CC(NC(=O)c2ccc(Oc3ccccc3CN3CCCC3)cc2)CC(C)(C)N1` [Compound I-250], the IC50 on EZH2 fell in the range of 20 to 80 µM. Still for that read-out and setting: next, `CN1C(C)(C)CC(NC(=O)c2ccc(Oc3ccccc3C#N)c(Cl)c2)CC1(C)C` [Compound I-289]: under 5 µM. As for `CC1(C)CC(NC(=O)c2ccc(Oc3c(F)cccc3C#N)cc2)CC(C)(C)N1` [Compound I-159], at EZH2, the IC50 lay in the range of 20 to 80 µM. `Cc1ccc(C#N)c(Oc2ccc(C(=O)NC3CC(C)(C)NC(C)(C)C3)cc2)c1` [Compound I-158]: the IC50 at EZH2 was 20 to 80 µM. For `CC1(C)CC(NC(=O)c2ccc(Oc3cccc4c3CCCC4)cc2)CC(C)(C)N1` [Compound I-181], the IC50 on EZH2 fell in the range of 5 to 20 µM.

Turning to `CN1C2CCC1CC(NC(=O)c1ccc(Oc3ccccc3)cc1)C2` (centres unmarked) [Compound I-114], on EZH2, the IC50 is over 80 µM.

With `CC1(C)CC(NC(=O)c2ccc(Oc3ccc([N+](=O)[O-])cc3)cc2)CC(C)(C)N1` [Compound I-73], the IC50 on EZH2 is over 80 µM. As for `CC1(C)CC(NC(=O)c2ccc(Oc3ccccc3C#N)c(Cl)c2)CC(C)(C)N1CCO` [Compound I-459], the IC50 on EZH2 was under 5 µM.
